For 17 compounds, TGI results are on record in PubChem BioAssay (NCI).

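1) Cells in 96-well plates. 2) Compound, 48 h, 5 concentrations. 3) Linear interpolation between surrounding doses. 4) Unreached endpoint = highest concentration. At the TGI there is no net growth.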

Test in all cases: NCI tumour cell line growth inhibition, 48 h
For test [1], the system named is ACHN renal.
The subject of test [2] is EKVX NSCLC.
The test system of test [3] is HL-60(TB) leukemia.
Test [4] has as its system HOP-92 NSCLC.
In test [5] the test system is HS 578T breast.
Test [6] has as its system M14 melanoma.
The test system of test [7] is MDA-MB-435.
Test [8] concerns NCI-H522 lung.
Test [9] has as its system OVCAR-3 ovarian.
Test [10] concerns OVCAR-8 ovarian.
Test [11] deals with PC-3 prostate.
The test system of test [12] is SF-268 CNS.
The test system of test [13] is SF-539 CNS.
The subject of test [14] is SNB-19 CNS.
The subject of test [15] is TK-10 renal.
Test [16] deals with UACC-62 melanoma.
For test [17], the system named is HOP-62 NSCLC.
In test [18] the test system is LOX IMVI melanoma.

Take `Cc1ccc2c(c1C)C(=O)C1(C2)Cc2ccc3c(c2C1=O)CCC3` (centres undefined): the TGI in [1], in test [2], in test [3], in test [4], in [5] and in test [6] was > 100 µM throughout. Also, the TGI in test [7], in [8], in [9], in [10], in test [11] and in [12] was > 100 µM throughout. Besides, the TGI in [13], in test [14], in test [15] and in [16] was > 100 µM each time.
Regarding `CN1CCN(Cn2nc(COc3ccccc3Cl)n(/N=C/c3ccc(-c4ccc(Cl)cc4Cl)o3)c2=S)CC1`, the TGI is > 100 µM in [2]; 55.1 µM in test [3]; 45.7 µM in [17]; 40.6 µM in test [4]; > 100 µM in [5]; > 100 µM in test [18]. For the same compound, the TGI in test [6] worked out at 81.7 µM; in test [7], 64.5 µM; in [8], 56.1 µM; in [9] it was 47.5 µM; in test [10] it was 79.3 µM; in test [11] it was 53.6 µM. Also, the TGI is > 100 µM in [12], 62.6 µM in test [13] and 62.4 µM in test [15].
For `COC(=NC(C)C)NC(C)C`, the TGI in test [1], in [2], in test [3], in [17], in test [4] and in [5] was > 100 µM throughout. Further, the TGI in test [18], in test [6], in [7], in [10], in test [11] and in [12] was > 100 µM in each case. For the same compound, the TGI in test [13], in [14], in test [15] and in test [16] was > 100 µM throughout.
On to `COC(=O)c1c(O)c(C#N)c2[nH]c3ccccc3n2c1=O`, for which the TGI in [1], in test [2], in test [3], in test [17], in test [4] and in [5] was > 100 µM in each case. The TGI in [6], in test [7], in test [8], in test [9], in [10] and in test [11] was > 100 µM throughout. The TGI in test [12], in [13], in test [14], in [15] and in test [16] was > 100 µM in each case.
`Brc1ccc(C2=NCSC(c3ccc(Br)cc3)=N2)cc1`: the TGI in test [1] was > 100 µM; in test [2], 38.5 µM; in test [3], 34.8 µM; in test [17], > 100 µM; in [4], > 100 µM; in [5] it was > 100 µM. Moreover, the TGI is 70.9 µM in test [18]; > 100 µM in [6]; > 100 µM in test [7]; 58.4 µM in [8]; > 100 µM in test [10]; 56.7 µM in test [11]. Moreover, the TGI in test [12] is > 100 µM; in test [13], 99.2 µM; in test [14], > 100 µM; in test [15], 53.8 µM; in test [16] it was 29.8 µM.
Consider `N=C(N)SCc1ccc2c(c1)S(=O)(=O)c1ccccc1O2`, for which the TGI in [1] is 31.9 µM; in test [2], 35.2 µM; in test [3] it was > 100 µM; in test [17], 42.4 µM; in [4], 42.8 µM; in [5] it was 78.7 µM. Besides, the TGI in test [18] is 60.2 µM; in test [6], 62.5 µM; in test [7], 34.3 µM; in test [9] it was 40.5 µM; in test [10], > 100 µM; in test [11], 37.4 µM. The TGI in test [12] was 93.1 µM; in test [13] it was 55.7 µM; in [14], > 100 µM; in [15] it was 34.7 µM; in [16] it was 34.9 µM.
Take `O=C1C=CC2(C=C1)O[C@H](COCc1ccccc1)[C@@H](COCc1ccccc1)O2`: the TGI amounted to 3.1 µM in [1]; 3.66 µM in test [2]; 6.4 µM in test [3]; 5.12 µM in [17]; 2.64 µM in test [4]; 4.87 µM in test [5]. The TGI is 3.51 µM in [18]; 3.88 µM in test [6]; 5.51 µM in [7]; 6.32 µM in [9]; 1.28 µM in test [10]; 4.74 µM in [11]. Moreover, the TGI in [12] was found to be 3.69 µM; in [13], 3.62 µM; in [14], 12.3 µM; in test [15], 4.17 µM; in test [16], 3.99 µM.
Consider `C=CCN1C(=O)CC2[C@@H]3CCc4cc(O)ccc4C3CC[C@]2(C)C1=O` (some centres undefined), for which the TGI in test [1], in test [2], in test [3], in test [17], in test [4] and in test [5] was > 10 µM throughout. The TGI in test [18], in test [6], in [7], in test [9], in test [10] and in test [11] was > 10 µM throughout. In addition, the TGI in test [12], in test [13], in [14], in [15] and in test [16] was > 10 µM each time.
Consider `Cc1ccc(-c2n[nH]c(=O)n2/N=C\c2ccccc2O)cc1`, for which the TGI in test [1], in [2], in [3], in [17], in [4] and in test [5] was > 100 µM throughout. Moreover, the TGI in [6], in [7], in test [8], in test [9], in [10] and in test [11] was > 100 µM in each case. For the same compound, the TGI in test [12], in test [13], in test [14] and in test [15] was > 100 µM each time.
On to `CCCN(CCC)C(=S)Sc1nc(C)nc(N2CCN(c3nc(C)nc(SC(=S)N(CCC)CCC)c3[N+](=O)[O-])CC2)c1[N+](=O)[O-]`, for which the TGI is 40.9 µM in [1]; > 83 µM in test [2]; > 38.3 µM in test [3]; > 85 µM in [17]; 22.4 µM in test [4]; > 100 µM in test [5]. Moreover, the TGI is 2.27 µM in test [18]; 60.9 µM in test [6]; > 65.9 µM in [7]; 3.17 µM in test [8]; > 100 µM in test [10]; 53.4 µM in [11]. Besides, the TGI in test [12] is 98.5 µM; in [13], > 80.6 µM; in [14] it was > 88.3 µM; in [15], 41.9 µM; in test [16], 60.3 µM.
Regarding `CCOc1ccc(/C=C2\N=C(c3ccccc3)OC2=O)cc1`, the TGI in test [1], in test [2], in test [3], in [17], in test [4] and in test [5] was > 100 µM in each case. Further, the TGI in [6], in [7], in test [8], in test [9], in [10] and in test [11] was > 100 µM throughout. Moreover, the TGI in test [12], in test [13], in test [14], in test [15] and in test [16] was > 100 µM throughout.
In the case of `COCCN(C(=O)c1ccccc1)C1CCC2(SCCS2)c2[nH]c3ccccc3c21` (centres undefined), the TGI in test [1] is > 100 µM; in [2], > 100 µM; in [3], 55.2 µM; in test [17] it was > 100 µM; in test [4] it was 78 µM; in [5], > 100 µM. For the same compound, the TGI was > 100 µM in test [18]; 69.6 µM in [7]; 98.8 µM in [8]; > 100 µM in test [9]; > 100 µM in [10]; 59.3 µM in test [11]. Besides, the TGI in test [12], in [13], in test [14] and in test [15] was > 100 µM in each case.
For `NC(N)=N/N=C\c1c(-c2cccc([N+](=O)[O-])c2)nc2sccn12`, the TGI in test [1] is 5.68 µM; in [2], 56.2 µM; in test [3] it was > 100 µM; in test [17], > 100 µM; in test [4], 27.6 µM; in test [5], 38.1 µM. The TGI in test [6] was determined as 5.93 µM; in test [7], 5.16 µM; in test [8], 14.2 µM; in [9], 6.29 µM; in [11], 29 µM; in [13] it was 54.9 µM. The results for the TGI in test [15] and in test [16] were 4.53 µM and 79 µM, respectively.
As to `CC(=O)N1C=Cc2c(c(C)c3c([nH]c4ccccc43)c2C)C1`, the TGI in test [1] was 11.3 µM; in test [2] it was 8.13 µM; in test [3] it was > 100 µM; in test [17], 17.5 µM; in test [4] it was 20.8 µM; in [5] it was 15.9 µM. Further, the TGI in test [18] was found to be 16.8 µM; in test [6] it was 20.9 µM; in test [7], 27.4 µM; in test [8], 29.7 µM; in test [9], 4.55 µM; in [10], 29.1 µM. The TGI worked out at 19.6 µM in test [11]; 32.6 µM in [12]; 18.8 µM in test [13]; 28.7 µM in test [14]; 24.5 µM in [15].
As to `N#Cc1cc2c(cc1C#N)SCCSCCCSCCS2`, the TGI in test [1] was 19.4 µM; in [2], > 100 µM; in [17], 4.95 µM; in test [4], 7.05 µM; in [5], 28.8 µM; in test [18], 22.7 µM. Moreover, the TGI in [6] was > 100 µM; in test [7], > 100 µM; in [8] it was > 85.7 µM; in [9], > 100 µM; in test [10], 31.8 µM; in [11] it was > 82.8 µM. Besides, the TGI came out at 29.9 µM in test [12]; 43.2 µM in test [13]; 22.9 µM in [14]; 14.3 µM in [15]; 27.6 µM in test [16].
In the case of `CCNC1=C(NC(=O)c2ccc(F)cc2)C(=O)c2ccccc2C1=O`, the TGI in test [1], in test [2], in test [3], in test [17], in [4] and in test [5] was > 100 µM in each case. For the same compound, the TGI was 63.5 µM in test [6]; 35.9 µM in [7]; > 100 µM in [8]; 85.7 µM in test [9]; > 100 µM in test [10]; > 100 µM in test [11]. In addition, the TGI in [12], in test [13], in test [14], in test [15] and in test [16] was > 100 µM each time.
In the case of `COC(=O)/C=C1\SC2(OC1=Nc1ccccc1)C1CC3CC(C1)CC2C3` (centres undefined), the TGI in test [1], in test [2], in test [3], in [17], in test [4] and in test [5] was > 100 µM throughout. Moreover, the TGI in test [18], in [7], in [8], in test [9], in test [10] and in [11] was > 100 µM each time. Besides, the TGI in test [13], in test [14], in test [15] and in test [16] was > 100 µM throughout.
